Data from US11643395B2, “Derivatives of 4-aminoantipyrine as anti-Alzheimers butyrylcholinesterase inhibitors” (priority 2021, dated 2023).
Entries after “also recorded” stand apart in the source; their conditions may differ. Structures can show the parent of a compound that is named as a salt.

Columns and labels:
[1] = target: T1, butyrylcholinesterase (BuChE) enzyme (Homo sapiens (Human), UniProt P06276); test: In-vitro butyryl cholinesterase inhibitory activity (DTNB, 96-well); format: biochemical; details: for IC50: read-out: Butyrylcholinesterase Inhibition Activity IC50 ± SEM; for Butyrylcholinesterase inhibition, rating in words: compared with standard galantamine hydrobromide
T1 sequence (P06276 29-602): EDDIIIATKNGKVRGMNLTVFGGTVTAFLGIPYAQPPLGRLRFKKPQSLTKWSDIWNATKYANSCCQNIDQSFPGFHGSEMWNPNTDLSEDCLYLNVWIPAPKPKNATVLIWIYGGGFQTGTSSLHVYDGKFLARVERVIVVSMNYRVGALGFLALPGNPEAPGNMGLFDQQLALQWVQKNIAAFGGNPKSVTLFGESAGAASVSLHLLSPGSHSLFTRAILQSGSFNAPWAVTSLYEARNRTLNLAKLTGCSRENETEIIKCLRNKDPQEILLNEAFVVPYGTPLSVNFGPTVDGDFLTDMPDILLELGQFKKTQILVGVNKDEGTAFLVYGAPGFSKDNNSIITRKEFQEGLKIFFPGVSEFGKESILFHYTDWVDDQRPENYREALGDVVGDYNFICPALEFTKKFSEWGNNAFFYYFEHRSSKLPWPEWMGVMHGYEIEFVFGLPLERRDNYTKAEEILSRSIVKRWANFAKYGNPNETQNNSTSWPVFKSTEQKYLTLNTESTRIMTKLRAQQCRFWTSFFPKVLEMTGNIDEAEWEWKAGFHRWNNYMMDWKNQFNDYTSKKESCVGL
Procedure: After that 10 μL of pre-prepared butyrylthiocholine chloride (0.5 mM) substrate was added in the dark for 15 minutes, followed by the addition DTNB (0.5 mM), to produce thionitrobenzoate (TNB), whose absorbance range in 412 nm. 5-Thio-2 nitrobenzoate (TNB) (yellow color) anion was produced when thiocholine binds with DTNB which was measured in the form of absorbance in each well. Each compound was evaluated in triplicate at 0.5 mM.
The enzyme inhibitory activity was calculated using the following formula: Percent Inhibition=100−(O.D. of test/O.D. of control)×100
Where test is the enzyme activity with sample, and control is the enzyme activity without sample, and O.D. is optical density.
The IC50 of the compounds was calculated using EZ-Fit Enzyme Kinetic Program (Perrella Scientific Inc., Amhrest, U.S.A.).

[2] = target: T1, butyrylcholinesterase (BuChE) enzyme; test: Kinetic studies of butyrylcholinesterase inhibition (L-B reciprocal plots); format: biochemical; details: four substrate concentrations (0.05, 0.1, 0.2, 0.4 mM); for Ki: read-out: Butyrylcholinesterase Inhibition Activity Ki ± SEM
Procedure: 0.5 mM concentrations of each inhibitor, as well as control, were examined for their butyrylcholinesterase inhibitory activity using four different substrate concentrations (0.05, 0.1, 0.2, and 0.4 mM).

[3] = butyrylthiocholine chloride substrate, pH 8.0, 25° C.

Q: Which results are given for Cc1c(N)c(=O)n(-c2ccccc2)n1C [4-aminoantipyrine, 4-Aminoantipyrine]?
A: IC50 [1, 3]: 69700 ± 400 nM; Butyrylcholinesterase inhibition, rating in words [1]: moderate inhibitor

Q: What does the source list for Cc1c(N(Cc2cccc(Cl)c2)Cc2cccc(Cl)c2)c(=O)n(-c2ccccc2)n1C [Compound 1, 4-(Bis(3-chlorobenzyl)amino)-1,5-dimethyl-2-phenyl-1,2-dihydro-3H-pyrazol-3-one]?
A: IC50 [1, 3]: 100 nM; Butyrylcholinesterase inhibition, rating in words [1]: potent inhibitors

Q: What does the source list for Cc1c(N(Cc2ccccc2Cl)Cc2ccccc2Cl)c(=O)n(-c2ccccc2)n1C [Compound 2, 4-(Bis(2-chlorobenzyl)amino)-1,5-dimethyl-2-phenyl-1,2-dihydro-3H-pyrazol-3-one]?
A: IC50 [1, 3]: 500 nM; Butyrylcholinesterase inhibition, rating in words [1]: potent inhibitors

Q: Cc1c(N(Cc2cccc(I)c2)Cc2cccc(I)c2)c(=O)n(-c2ccccc2)n1C [Compound 3, 4-(Bis(3-iodobenzyl)amino)-1,5-dimethyl-2-phenyl-1,2-dihydro-3H-pyrazol-3-one] was tested. Which IC50 [1, 3] did it give?
A: The IC50 was 400 nM.

Q: And the “Butyrylcholinesterase inhibition, rating in words” value [1]?
A: Its value is “potent inhibitors”.

Q: Which results are given for Cc1c(N(Cc2ccccc2I)Cc2ccccc2I)c(=O)n(-c2ccccc2)n1C [Compound 4, 4-(Bis(2-iodobenzyl)amino)-1,5-dimethyl-2-phenyl-1,2-dihydro-3H-pyrazol-3-one]?
A: Butyrylcholinesterase Inhibition Activity IC50 ± SEM [1, 3]: Not Active; Butyrylcholinesterase inhibition, rating in words [1]: completely inactive

Q: For Cc1c(N(Cc2ccc(I)cc2)Cc2ccc(I)cc2)c(=O)n(-c2ccccc2)n1C [Compound 5, 4-(Bis(4-iodobenzyl)amino)-1,5-dimethyl-2-phenyl-1,2-dihydro-3H-pyrazol-3-one], which IC50 [1, 3] is on record?
A: The IC50 was 2430 nM.

Q: And the “Butyrylcholinesterase inhibition, rating in words” value [1]?
A: Its value is “potent inhibitors”.

Q: What about the “Type of inhibition of butyrylcholinesterase” value [2] of the same compound?
A: The value was “competitive inhibition; also recorded: Competitive Inhibitor”.

Q: And the Ki [2]?
A: Its Ki is 5670 nM.

Q: For Cc1c(N(Cc2ccccc2Br)Cc2ccccc2Br)c(=O)n(-c2ccccc2)n1C [Compound 6, 4-(Bis(2-bromobenzyl)amino)-1,5-dimethyl-2-phenyl-1,2-dihydro-3H-pyrazol-3-one], which IC50 [1, 3] is on record?
A: The IC50 was 700 nM.

Q: And the “Butyrylcholinesterase inhibition, rating in words” value [1]?
A: The value was “potent inhibitors”.

Q: And the “Type of inhibition of butyrylcholinesterase” value [2]?
A: The value was “non-competitive type of inhibition; also recorded: Non-competitive Inhibitor”.

Q: And the Ki [2]?
A: Its Ki is 2400 nM.

Q: Which results are given for Cc1c(N(Cc2ccc(Br)cc2)Cc2ccc(Br)cc2)c(=O)n(-c2ccccc2)n1C [Compound 7, 4-(Bis(4-bromobenzyl)amino)-1,5-dimethyl-2-phenyl-1,2-dihydro-3H-pyrazol-3-one]?
A: IC50 [1, 3]: 58700 ± 400 nM; Butyrylcholinesterase inhibition, rating in words [1]: moderate inhibitor

Q: How did the IC50 [1, 3] turn out when Cc1c(N(Cc2cccc(Br)c2)Cc2cccc(Br)c2)c(=O)n(-c2ccccc2)n1C [Compound 8, 4-(Bis(3-bromobenzyl)amino)-1,5-dimethyl-2-phenyl-1,2-dihydro-3H-pyrazol-3-one] was run?
A: The IC50 was 26.2 nM.

Q: And the “Butyrylcholinesterase inhibition, rating in words” value [1]?
A: The value was “potent inhibitors”.

Q: How did the “Type of inhibition of butyrylcholinesterase” value [2] turn out when COc1ccc2c3c1O[C@H]1C[C@@H](O)C=C[C@@]31CCN(C)C2 [galantamine hydrobromide, reference compound] was run?
A: The value was “Mixed type Inhibitor”.
